{
  "source": "paper PMC12470154",
  "about": "“In Vitro Evaluation of Antimicrobial Amyloidogenic Peptides for the Treatment of Early and Mature Bacterial Biofilms” (International Journal of Molecular Sciences, 2025)",
  "key": {"[1]": {"tested_on": "S. aureus (129B strain)", "assay": "Mature biofilms, MTT assay", "format": "cell-based, Staphylococcus aureus", "parameters": "key: ↓: Decrease in the parameter (optical density) compared to the negative control; −: No decrease in the parameter; ↑: Reverse effect (increase in the optical density compared to the control)", "details": "mature biofilm: peptide added after 24 h, further 24 h; 0.01-10 mg/mL", "procedure": "(§1) After 24 h of incubation, the medium was removed. To assess the total biofilm biomass, the wells were rinsed with sterile PBS solution and stained with 0.1% crystal violet. The dye bound to the surface was then removed using 95% ethanol. To assess the presence of metabolically active cells, 0.3% MTT (PanEco Ltd., Moscow, Russia) solution was added to each well, and the plates were incubated at 37 °C for 2 h. After incubation, the MTT solution was removed, 150 µL of DMSO (Chimmed, Moscow, Russia) and 25 µL of glycine buffer were added to each well, and the plates were left at room temperature for 15 min. The resulting solutions were transferred to a flat-bottom 96-well plate, and optical density was measured at 595 nm.\n(§2) A stationary-phase culture of the tested strain was diluted 100-fold in fresh medium (200 µL per well) and added to the wells of a 96-well round-bottom plate. […] After another 24 h, the medium was removed and the wells were rinsed with sterile PBS to eliminate planktonic cells. The procedures for assessing total biofilm biomass and cell metabolic activity using crystal violet and MTT assays were performed in the same manner as described above for early-stage biofilm experiments."}, "[2]": {"tested_on": "S. aureus (129B strain)", "assay": "Mature biofilms, MTT assay", "format": "cell-based, Staphylococcus aureus", "details": "mature biofilm", "procedure": "as §1, §2"}, "[3]": {"tested_on": "MRSA (SA 180-F strain)", "assay": "Mature biofilms, MTT assay", "format": "cell-based, methicillin-resistant Staphylococcus aureus", "parameters": "key: ↓: Decrease in the parameter (optical density) compared to the negative control; −: No decrease in the optical density; ↑: Reverse effect (increase in the optical density compared to the control)", "details": "mature biofilm: peptide added after 24 h, further 24 h; 0.01-10 mg/mL", "procedure": "as §1, §2"}, "[4]": {"tested_on": "S. aureus (129B strain)", "assay": "Mature biofilms, crystal violet staining", "format": "cell-based, Staphylococcus aureus", "parameters": "key: ↓: Decrease in the parameter (optical density) compared to the negative control; −: No decrease in the optical density; ↑: Reverse effect (increase in the optical density compared to the control)", "details": "mature biofilm: peptide added after 24 h, further 24 h; 0.01-10 mg/mL", "procedure": "as §1, §2"}, "[5]": {"tested_on": "E. coli (MG1655 strain)", "assay": "Early biofilm formation, MTT assay", "format": "cell-based, Escherichia coli", "parameters": "key: ↓: Decrease in the parameter (optical density) compared to the negative control; −: No decrease in the optical density; ↑: Reverse effect (increase in the optical density compared to the control)", "details": "24 h, 0.3% MTT 2 h 37 °C, OD 595 nm", "procedure": "as §1"}},
  "data": [
    {"sequence": "ITDFGIFIGLGGGGSRQIKIWFQNRRMKWKK [I31K^P]", "values": [
      {"measurement": "change of optical density after MTT assay vs negative control", "setting": "[1]", "value": "↓ (0.01 mg/mL)"},
      {"measurement": "metabolic activity of cells within mature biofilms (MTT)", "setting": "[2]; 0.01, 0.1, 1, and 10 mg/mL", "value": "decreased the metabolic activity"},
      {"measurement": "concentration given with ↓ (MTT)", "setting": "[2]", "value": 0.01, "unit": "mg/mL"}
    ]},
    {"sequence": "RKKRRQRRRGGGGVTDFGVFVEI [R23I^T, TAT cell-penetrating peptide linked via glycine linker to amyloidogenic fragment of S1 ribosomal protein of T. thermophilus]", "values": [
      {"measurement": "change of optical density after MTT assay vs negative control", "setting": "[3]", "value": "−"},
      {"measurement": "change of optical density after crystal violet staining vs negative control", "setting": "[4]", "value": "−"}
    ]},
    {"sequence": "RKKRRQRRRGGGGVVVHINGGKFGGGGSRQIKIWFQNRRMKWKK [R44K^S]", "values": [
      {"measurement": "change of optical density after MTT assay vs negative control", "setting": "[5]", "value": "−"}
    ]},
    {"sequence": "VTDFGVFVEIGGGGSRQIKIWFQNRRMKWKK [V31K^T, amyloidogenic fragment of S1 of T. thermophilus linked via glycine-rich linker to antennapedia peptide]", "values": [
      {"measurement": "change of optical density after MTT assay vs negative control", "setting": "[5]", "value": "−"}
    ]}
  ]
}
